Data on ten molecules can be found in US8846951B2 (AbbVie Inc., priority 2009, dated 2014).

pEC50, pKi: −log10 of the molar value. Values joined by “and” are separate entries in the source; they are usually repeats but may differ in a detail not shown here. Equal values may be shown once. Read-outs that look alike come from different tables or passages of the source.

Assay [1] deals with T1, human serotonin 5-HT2c receptor (Homo sapiens, UniProt P28335).
T1 construct: expressed in transfected cells; host or cells: CHO cells (membrane homogenates)
T1 sequence (P28335 33-458): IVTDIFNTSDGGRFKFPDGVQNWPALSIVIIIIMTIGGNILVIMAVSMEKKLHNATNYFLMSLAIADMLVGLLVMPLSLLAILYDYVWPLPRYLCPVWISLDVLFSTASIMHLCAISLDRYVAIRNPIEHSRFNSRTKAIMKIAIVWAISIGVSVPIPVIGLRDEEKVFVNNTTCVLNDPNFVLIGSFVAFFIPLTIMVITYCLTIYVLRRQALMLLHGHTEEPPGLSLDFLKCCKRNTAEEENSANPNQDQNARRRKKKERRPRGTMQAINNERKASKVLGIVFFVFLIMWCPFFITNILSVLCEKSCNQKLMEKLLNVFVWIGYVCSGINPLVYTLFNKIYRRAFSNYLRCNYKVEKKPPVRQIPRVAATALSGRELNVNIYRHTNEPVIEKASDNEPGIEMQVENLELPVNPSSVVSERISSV
Nature of the assay: Human 5-HT2C receptor radioligand binding assay (agonist site, [125I]DOI). The following applies: 5-HT2c agonist site; transfected CHO cell membranes; 0.2 nM [125I](±)DOI. The protocol:
(i) Human 5-HT2C Receptor Radioligand Binding Assay
Affinity of compounds for the agonist site of the […], receptor in transfected CHO cells was determined in a radioligand binding assay essentially as described by Bryant, H. U., et al., Life Sciences (1996) 59(15), 1259-1268.

For assay [2], the target named is T2, 5HT2B receptors (Homo sapiens, UniProt P41595).
T2 construct: expressed in transfected cells; host or cells: CHO-K1 cells
T2 sequence (P41595 whole entry): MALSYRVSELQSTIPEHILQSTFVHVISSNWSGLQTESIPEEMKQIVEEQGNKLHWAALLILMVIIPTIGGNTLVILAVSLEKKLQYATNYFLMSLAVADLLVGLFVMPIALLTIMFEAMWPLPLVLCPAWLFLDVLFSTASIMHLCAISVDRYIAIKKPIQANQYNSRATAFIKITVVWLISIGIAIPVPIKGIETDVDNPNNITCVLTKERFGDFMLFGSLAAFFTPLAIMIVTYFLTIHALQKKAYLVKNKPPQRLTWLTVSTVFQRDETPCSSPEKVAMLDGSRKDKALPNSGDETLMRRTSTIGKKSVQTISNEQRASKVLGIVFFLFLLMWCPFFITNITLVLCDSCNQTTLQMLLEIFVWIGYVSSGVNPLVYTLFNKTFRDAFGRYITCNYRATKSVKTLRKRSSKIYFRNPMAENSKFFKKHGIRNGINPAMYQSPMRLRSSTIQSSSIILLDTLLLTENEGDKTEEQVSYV
As to the kind of experiment: Human 5-HT2B functional high throughput screening assay in CHO-K1 cells (calcium flux). As to conditions: for pEC50: CHO-K1 cells, calcium flux; call rule not given here. The class given is cell-based. Put shortly:
(§1)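 Agonism is measured as intracellular calcium increase in receptor-overexpressing CHO-K1 cells, read by FLIPR at 25 °C. Responses are expressed relative to serotonin, with EC50 and Emax derived from a 4-parameter logistic curve over 6 concentrations starting at 10 μM.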

The target of assay [3] is T3, 5HT2C receptors (Homo sapiens, UniProt P28335).
T3 sequence (P28335 33-458): T1 sequence (P28335 33-458)
Nature of the assay: Human 5-HT2C functional assay in CHO-K1 cells (96-well, calcium, FLIPR). The class given is cell-based. Also on record: expressed in transfected cells. As to conditions: 5-HT2c agonist activity, CHO-K1 cells stably transfected. The method, then: (iv) Human 5-HT2C Functional Assay in CHO-K1 Cells
Functional activity was determined by testing the effect of the compounds on intracellular calcium levels in CHO-K1 cells stably transfected with the human 5-HT2C receptor. Cells were seeded into 96-well plates at 60,000 cells/well and grown overnight in tissue culture medium (UltraCHO™ (Lonza), containing 1% dFCS, 250 μg/mL Zeocin, 400 μg/mL Geneticin) at 37° C. and 5% CO2. Growth medium was replaced by medium without dFCS for overnight incubation. Cells were loaded with a fluorescent calcium-sensitive dye in the presence of probenicid according to the manufacturer's protocol (FLIPR Ca4 Assay kit, Molecular Devices). Serial compound dilutions (final concentrations 10^−10 to 10^−5 M) were added to the cells and the maximum calcium response was determined using a FLIPR instrument (Molecular Devices). Concentration-response curves were fitted using a four-parameter logistic equation (GraphPad Prism). The concentration at which the compound exerts half its maximal effect is named the ‘effective concentration 50’ or ‘EC50’ and is listed in Table 5.

Assay [4] concerns the target T3, 5HT2C receptors. As to the kind of experiment: Human 5-HT2C functional high throughput screening assay in CHO-K1 cells (calcium flux). The following applies: for pEC50: CHO-K1 cells, calcium flux; for Emax: 5-HT2C, maximum functional response as percentage relative to the effect of serotonin. The assay is classed as cell-based. More on the design: expressed in transfected cells; host or cells: CHO-K1 cells. Put shortly:
as §1

The target of assay [5] is T4, h-5-HT6 receptor (Homo sapiens, UniProt P50406).
T4 construct: expressed in transfected cells; host or cells: HEK293 cells (membranes)
T4 sequence (P50406 whole entry): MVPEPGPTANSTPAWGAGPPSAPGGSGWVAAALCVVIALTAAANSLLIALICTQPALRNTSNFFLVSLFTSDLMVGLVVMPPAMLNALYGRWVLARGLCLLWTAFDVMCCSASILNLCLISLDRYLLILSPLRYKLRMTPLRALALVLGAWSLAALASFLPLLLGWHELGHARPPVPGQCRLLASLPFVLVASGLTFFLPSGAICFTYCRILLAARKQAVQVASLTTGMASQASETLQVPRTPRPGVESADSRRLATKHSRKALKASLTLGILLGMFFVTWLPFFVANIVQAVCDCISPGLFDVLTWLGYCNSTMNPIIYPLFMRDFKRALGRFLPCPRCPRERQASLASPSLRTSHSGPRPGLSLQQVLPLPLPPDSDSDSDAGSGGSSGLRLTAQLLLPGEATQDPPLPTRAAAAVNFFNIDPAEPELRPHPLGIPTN
As to the kind of experiment: Human 5-HT6 receptor radioligand binding assay (HEK293 membranes, [3H]-LSD). As to conditions: HEK293 membranes expressing h-5-HT6 receptor, 1 nM [3H]-LSD; geometrical mean; read-out: Ki (5-HT6 Agonist Site Radioligand Binding). The protocol: (v) Human 5-HT6 Receptor Radioligand Binding Assay
Preparation of Membranes by Ultrasonic Treatment and Differential Centrifugation
Cells from stable clonal cell lines expressing the corresponding receptor (5-HT6) were washed with PBS (without Ca^++, Mg^++) and harvested in PBS with 0.02% EDTA. The cells were collected by centrifugation at 500 g for 10 minutes at 4° C., washed with PBS and centrifuged (500 g, 10 minutes at 4° C.). The pellets were stored at −80° C. until use. For membrane preparation, the thawed cell pellet was resuspended in ice-cold sucrose buffer (0.25 M sucrose, 10 mM HEPES (pH 7.4), 1 mM phenylmethylsulfonyl fluoride (PMSF) in DMSO, 5 μg/ml Pepstatin-A, 3 mM EDTA, 0.025% Bacitracin) and homogenized with a Branson Sonifier W-250 (Settings: Timer 4; Output Control 3; Duty Cycle constant; 2 to 3 cycles). Cell disruption was checked with the aid of a microscope. Remaining unbroken cells were pelleted at 1,000 g for 10 minutes at 4° C. The sucrose buffer supernatant was then centrifuged at 60,000 g for 1 hour at 4° C. (Beckman Ultracentrifuge XL 80). The pellet was resuspended in 30 mL of ice-cold Tris buffer (20 mM TRIS (pH 7.4), 5 μg/mL Pepstatin A, 0.1 mM PMSF, 3 mM EDTA) by pipetting through a 10 mL serological pipette and centrifuged for 1 hour at 4° C. at 60,000 g. A final resuspension was performed in a small volume of ice-cold Tris buffer (see above) by pressing through a serological pipette followed by ultrasonic treatment with a Branson Sonifier W-250 (Settings: Timer 1; Output Control 3; Duty Cycle constant; 1 cycle). Protein concentration was determined (BCA-Kit; Pierce) and aliquots stored at −80° C. or in liquid nitrogen for long-term storage.
Receptor Binding Experiments
All receptor binding experiments were carried out in the corresponding assay buffer in a total volume of 200 μL in the presence of various concentrations of test compound (10^−5 M to 10^−9 M, tenfold serial dilution, duplicate determinations). The assays were terminated by filtration on polyethylenimine (PEI 0.1% or 0.3%) presoaked Packard Unifilter Plates (GF/C or GF/B) with a Tomtec MachIII U 96 well-plate harvester. After the plates had been dried for 2 hours at 55° C. in a drying chamber scintillation cocktail (BetaPlate Scint; PerkinElmer) was added. Radioactivity was measured in a Microbeta Trilux two hours after the addition of the scintillation mixture.
5-HT6 Receptor Binding Assay
HEK293 cells stably expressing the h-5-HT6 receptor (NCBI Reference Sequence XM 001435) were cultured in RPMI1640 medium supplemented with 25 mM HEPES, 10% fetal calf serum and 1-2 mM glutamine. The membrane preparation was performed as described above. […] On the day of the assay, the membranes were thawed, diluted in assay buffer (50 mM Tris-HCl, 5 mM CaCl2, 0.1% ascorbic acid, 10 μM pargyline, pH 7.4) to a concentration of 8 μg protein/assay and homogenized by gentle vortexing. […] Non-specific binding was defined with 1 μM methiothepin. The binding reaction was carried out for 3.5 hours at room temperature. During the incubation, the plates were shaken on a plate shaker at 100 rpm and terminated by filtration on Packard Unifilter GF/C (0.1% PEI) plates, followed by 2 wash cycles with ice-cold 50 mM Tris-HCl, 5 mM CaCl2.
Data derived from liquid scintillation counting were analyzed by iterative non-linear regression analysis with the use of the Statistical Analysis System (SAS): a program similar to “LIGAND” as described by Munson and Rodbard (Anal. Biochem. 1980, 107, 220-239). Fitting was performed according to formulae described by Feldman (Anal. Biochem. 1972, 48, 317-338). IC50 and Ki values were expressed as geometrical mean.

The target of assay [6] is T3, 5HT2C receptors. Nature of the assay: Human 5-HT2C functional assay in 1321N1 cells (intracellular calcium, FLIPR). As to conditions: 5-HT2c agonist activity, maximum calcium response. The assay is classed as cell-based. More on the design: expressed in transfected cells; host or cells: 1321N1 cells. Put shortly: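 1321N1 cells stably expressing human 5-HT2C were serum-starved overnight and loaded with Fluo-4 AM and 1% probenecid. Compounds (10^−10 to 10^−5 M) were tested alone or with 10^−9 M serotonin, and peak calcium was read by FLIPR. EC50 from four-parameter logistic fit.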
(In general: Calcium flux is commonly read through the fluorescence of an indicator in the cells.)

Where [7] appears, read: 5-HT2B agonist activity, read-out: EC50.
[8] abbreviates: 5-HT2B, maximum functional response as percentage relative to the effect of serotonin.
Setting [9] is: 5-HT2C agonist activity, read-out: EC50.

For orientation: pKi means −log10 of the Ki, conventionally taken in molar units. Broadly, the pEC50 is the negative decadic logarithm of the EC50, by convention in mol/L. Usually Emax stands for the greatest response seen or fitted, relative to the assay's reference. Regarding `O=C1NC[C@@H]2CN(Cc3ccccc3)C[C@H]2c2cc(F)ccc21` (relative stereo) [Example 63, Trans-2-benzyl-9-fluoro-1,2,3,3a,4,5-hexahydrobenzo[c]pyrrolo[3,4-e]azepin-6(10bH)-one], the pKi in assay [1] was 6.85. The values for the pEC50 in assay [2] (setting [7]), in assay [3] and in assay [4] (setting [9]) were < 5.00, 6.84 and 6.70, respectively. In addition, the maximum response (Emax) entry in assay [2] (setting [8]) was “inactive”; in assay [4] (CHO-K1, read-out: Emax), 120%.
As to `c1ccc2c(c1)OCC[C@H]1CNC[C@@H]21` (relative stereo) [Example 96, Cis-2,3,3a,4,5,10b-hexahydro-1H-[1]benzoxepino[4,5-c]pyrrole], the pKi in assay [1] is 6.42. Besides, the maximal effect (Emax) in assay [2] (CHO-K1) was 50%; in assay [4] (CHO-K1) it was 120%. Moreover, the pEC50 in assay [2] (EC50, 5-HT2B agonist activity) is 6.00; in assay [3], 7.43; in assay [4] (EC50, 5-HT2C agonist activity), 6.70.
Take `O=C1NC[C@@H]2CNC[C@H]2c2cccc(F)c21` (single isomer, unassigned) [Example 62, Trans-7-fluoro-1,2,3,3a,4,5-hexahydrobenzo[e]pyrrolo[3,4-c]azepin-6(10bH)-one]: the pKi in assay [1] was 8.09. In addition, the Emax in assay [2] (setting [8]) was 80%; in assay [4], >120%. Besides, the negative logarithm of the EC50 (pEC50) is 6.15 in assay [2] (EC50, 5-HT2B agonist activity); 9.52 in assay [3]; 8.92 in assay [4] (EC50, 5-HT2C agonist activity).
`O=S(=O)(c1cccc(F)c1)N1Cc2ccccc2[C@@H]2CN(Cc3ccc(F)cc3)C[C@H]2C1` (relative stereo) [Example 74, Trans-2-(4-fluorobenzyl)-5-(3-fluorophenylsulfonyl)-1,2,3,3a,4,5,6,10b-octahydrobenzo[c]pyrrolo[3,4-e]azepine]: the pKi in assay [5] was 8.01. For the same molecule, the pEC50 in assay [3] is < 5.00.
As for `O=C1NC[C@@H]2CNC[C@H]2c2c(F)cccc21` (relative stereo) [Example 67, Trans-10-fluoro-1,2,3,3a,4,5-hexahydrobenzo[c]pyrrolo[3,4-e]azepin-6(10bH)-one], in assay [1], the negative-log Ki (pKi) was 7.37. The Emax in assay [2] (CHO-K1) is 110%; in assay [4] (CHO-K1), > 120%. In addition, the pEC50 is 6.00 and < 5.00 in assay [2] (EC50, 5-HT2B agonist activity); 8.60 in assay [3]; 8.18 in assay [6]; 8.30 in assay [4] (EC50, 5-HT2C agonist activity).
Molecule `CN1C[C@H]2CNC(=O)c3cc(Cl)ccc3[C@@H]2C1` (relative stereo) [Example 53, Trans-8-chloro-2-methyl-1,2,3,3a,4,5-hexahydrobenzo[e]pyrrolo[3,4-c]azepin-6(10bH)-one] had a negative-log Ki (pKi) in assay [1] of 8.09. The Emax result in assay [2] (setting [8]) was “inactive”; in assay [4] (CHO-K1), 100%. Moreover, the negative-log EC50 (pEC50) in assay [2] (EC50, 5-HT2B agonist activity) is < 5.00; in assay [3] it was 8.53; in assay [4] (EC50, 5-HT2C agonist activity), 7.70.
`c1ccc2c(c1)OCC[C@H]1CNC[C@H]21` (relative stereo) [Example 94, Trans-2,3,3a,4,5,10b-hexahydro-1H-[1]benzoxepino[4,5-c]pyrrole]: the Emax is 45% in assay [2] (CHO-K1) and > 120% in assay [4] (CHO-K1). For the same molecule, the pEC50 in assay [2] (EC50, 5-HT2B agonist activity) is 6.30; in assay [3] it was 6.91; in assay [4] (EC50, 5-HT2C agonist activity), 7.52.
As for `c1ccc(CN2C[C@@H]3CCOc4ccccc4[C@H]3C2)cc1` (relative stereo) [Example 93, Trans-2-benzyl-2,3,3a,4,5,10b-hexahydro-1H-[1]benzoxepino[4,5-c]pyrrole], the pEC50 was < 5.00 in assay [2] (setting [7]), 8.36 in assay [3] and 7.00 in assay [4] (setting [9]). Moreover, the Emax result in assay [2] (setting [8]) is “inactive”; in assay [4] (CHO-K1, read-out: Emax) it was > 120%.
For `CN1C[C@H]2CNC(=O)c3ccc(F)cc3[C@@H]2C1` (relative stereo) [Example 90, Trans-9-fluoro-2-methyl-1,2,3,3a,4,5-hexahydrobenzo[e]pyrrolo[3,4-c]azepin-6(10bH)-one], the Emax entry in assay [2] (setting [8]) was “inactive”; in assay [4] (CHO-K1) it was 85%. Also, the pEC50 in assay [2] (EC50, 5-HT2B agonist activity) was < 5.00; in assay [3], 7.84; in assay [4] (EC50, 5-HT2C agonist activity), 6.52.
Take `O=C1NC[C@@H]2CNC[C@H]2c2cc(F)ccc21` (relative stereo) [Example 64, Trans-9-fluoro-1,2,3,3a,4,5-hexahydrobenzo[c]pyrrolo[3,4-e]azepin-6(10bH)-one]: the pKi in assay [1] was 6.00. The pEC50 in assay [3] was 7.77.
